Measurements from ChEMBL document CHEMBL4177767, “Discovery of N2-(4-Amino-cyclohexyl)-9-cyclopentyl- N6-(4-morpholin-4-ylmethyl-phenyl)- 9H-purine-2,6-diamine as a Potent FLT3 Kinase Inhibitor for Acute Myeloid Leukemia with FLT3 Mutations” (J Med Chem, 2018).
Activity calls are given as the source filed them. No cut-off for these calls is given here.

Assays:
MV4-11 [1] = assay: Cell cycle arrest in human MV4-11 cells assessed as accumulation at sub-G1 phase at 0.1 nM after 24 hrs by propidium iodide staining-based flow cytometric method (reference value: 9.2%); format: functional
K562 = assay: cells; conditions: Homo sapiens, K562, 72 h
[2] = target: Serine/threonine-protein kinase SIK2 (Homo sapiens) (UniProt Q9H0K1); conditions: 10 nM
Serine/threonine-protein kinase SIK2 (Homo sapiens), sequence (Q9H0K1 whole entry, looked up): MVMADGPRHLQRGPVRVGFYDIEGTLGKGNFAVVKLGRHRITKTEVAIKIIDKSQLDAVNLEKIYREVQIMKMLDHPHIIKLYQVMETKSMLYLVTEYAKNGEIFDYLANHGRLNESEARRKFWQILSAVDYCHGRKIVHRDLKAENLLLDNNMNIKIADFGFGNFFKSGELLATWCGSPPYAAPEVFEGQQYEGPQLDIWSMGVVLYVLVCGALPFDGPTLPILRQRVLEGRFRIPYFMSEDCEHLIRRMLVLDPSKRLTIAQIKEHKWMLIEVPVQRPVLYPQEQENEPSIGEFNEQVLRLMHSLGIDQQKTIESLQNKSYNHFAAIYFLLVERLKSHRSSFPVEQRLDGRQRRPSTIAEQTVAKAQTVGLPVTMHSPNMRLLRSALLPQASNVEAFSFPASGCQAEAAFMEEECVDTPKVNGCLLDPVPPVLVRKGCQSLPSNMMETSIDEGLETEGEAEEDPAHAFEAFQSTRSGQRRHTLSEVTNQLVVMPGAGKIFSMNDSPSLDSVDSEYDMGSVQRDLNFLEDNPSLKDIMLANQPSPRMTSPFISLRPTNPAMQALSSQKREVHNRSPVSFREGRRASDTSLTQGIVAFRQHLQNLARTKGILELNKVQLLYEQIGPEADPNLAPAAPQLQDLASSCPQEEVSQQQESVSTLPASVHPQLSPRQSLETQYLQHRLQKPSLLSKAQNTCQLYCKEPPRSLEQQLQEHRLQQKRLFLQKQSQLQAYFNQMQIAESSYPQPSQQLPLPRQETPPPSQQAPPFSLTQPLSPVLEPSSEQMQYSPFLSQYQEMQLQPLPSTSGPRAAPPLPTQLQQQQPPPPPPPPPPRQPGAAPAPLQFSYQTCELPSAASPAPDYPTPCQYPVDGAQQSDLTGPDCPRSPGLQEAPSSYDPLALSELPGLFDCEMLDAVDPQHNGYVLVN
Description: Inhibition of full length human N-terminal GST-tagged QIK expressed in baculovirus expression system at 10 nM relative to control

U-937 = assay: cells; conditions: Homo sapiens, U-937, 72 h
Kasumi 1 = assay: cells; conditions: Homo sapiens, Kasumi 1, 72 h
MV4-11 [3] = assay: Induction of apoptosis in human MV4-11 cells assessed as increase in caspase-3/7 activity using Ac-DEVD-AMC substrate after 24 hrs by fluorescence assay; format: functional, cell-based
[4] = system: Receptor-type tyrosine-protein kinase FLT3 (Homo sapiens), P36888 [UNDEFINED MUTATION]; conditions: MV4-11, at 1 nM
Description: Inhibition of FLT3 ITD mutant autophosphorylation at Y842 in human MV4-11 cells at 1 nM after 1 hr by immunoblot analysis

MV4-11 [5] = assay: Induction of apoptosis in human MV4-11 cells assessed as increase in PARP1 cleavage at 10 to 100 nM after 24 hrs by immunoblot method; format: functional, cell-based
MV4-11 [6] = assay: Cell cycle arrest in human MV4-11 cells assessed as accumulation at G1 phase at 1 nM after 24 hrs by propidium iodide staining-based flow cytometric method (reference value: 56%); format: functional
[7] = system: Receptor-type tyrosine-protein kinase FLT3 (Homo sapiens), P36888 [UNDEFINED MUTATION]; conditions: MV4-11, at 0.01 to 100 nM
Description: Inhibition of FLT3 ITD mutant in human MV4-11 cells assessed as decrease in ERK1/2 phosphorylation at T202/Y204 at 0.01 to 100 nM after 1 hr by immunoblot analysis

MV4-11 [8] = assay: Cell cycle arrest in human MV4-11 cells assessed as accumulation at G2/M phase at 10 nM after 24 hrs by propidium iodide staining-based flow cytometric method (reference value: 15.9%); format: functional
MV4-11 [9] = assay: Cell cycle arrest in human MV4-11 cells assessed as accumulation at G2/M phase at 0.01 nM after 24 hrs by propidium iodide staining-based flow cytometric method (reference value: 15.9%); format: functional
[10] = target: Macrophage colony-stimulating factor 1 receptor (Homo sapiens) (UniProt P07333); conditions: 10 nM
Macrophage colony-stimulating factor 1 receptor (Homo sapiens), sequence (P07333 whole entry): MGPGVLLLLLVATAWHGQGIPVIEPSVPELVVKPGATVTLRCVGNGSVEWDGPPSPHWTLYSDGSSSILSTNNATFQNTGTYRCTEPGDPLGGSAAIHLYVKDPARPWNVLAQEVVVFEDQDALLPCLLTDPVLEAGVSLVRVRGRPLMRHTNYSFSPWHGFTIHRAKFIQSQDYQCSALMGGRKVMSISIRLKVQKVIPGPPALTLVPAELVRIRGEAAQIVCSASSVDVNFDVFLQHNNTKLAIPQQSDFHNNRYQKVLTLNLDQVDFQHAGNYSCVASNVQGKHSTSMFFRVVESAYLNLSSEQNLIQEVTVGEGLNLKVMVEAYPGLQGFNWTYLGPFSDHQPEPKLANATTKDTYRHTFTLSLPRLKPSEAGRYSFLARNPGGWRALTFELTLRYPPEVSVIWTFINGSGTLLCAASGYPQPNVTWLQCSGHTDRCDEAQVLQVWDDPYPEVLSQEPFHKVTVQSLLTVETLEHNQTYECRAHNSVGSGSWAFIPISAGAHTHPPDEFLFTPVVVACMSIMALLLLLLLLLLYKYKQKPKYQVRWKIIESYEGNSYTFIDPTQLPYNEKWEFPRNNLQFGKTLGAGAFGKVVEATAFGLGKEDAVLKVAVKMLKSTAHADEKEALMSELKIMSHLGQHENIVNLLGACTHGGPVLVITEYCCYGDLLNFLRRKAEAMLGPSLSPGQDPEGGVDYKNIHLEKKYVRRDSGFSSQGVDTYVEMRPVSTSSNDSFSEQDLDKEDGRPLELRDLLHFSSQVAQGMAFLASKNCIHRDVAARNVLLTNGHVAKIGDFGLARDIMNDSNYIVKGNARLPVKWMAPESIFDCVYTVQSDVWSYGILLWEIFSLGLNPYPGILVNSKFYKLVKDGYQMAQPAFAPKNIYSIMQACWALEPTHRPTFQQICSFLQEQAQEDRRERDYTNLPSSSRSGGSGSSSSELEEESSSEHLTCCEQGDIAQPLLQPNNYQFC
Description: Inhibition of human N-terminal GST-tagged FMS expressed in baculovirus expression system at 10 nM relative to control

Rattus norvegicus [11] = assay: Toxicity in Wistar rat assessed as pathological macroscopic changes at 100 mg/kg, iv after 15 days; format: organism-based; conditions: in vivo, 360 h
in vitro [12] = conditions: human, MRC5 cells
Rattus norvegicus [13] = assay: Toxicity in Wistar rat assessed as clinical signs of intoxication at 200 mg/kg, po measured over 15 days; format: organism-based; conditions: in vivo, 360 h
[14] = target: Receptor-type tyrosine-protein kinase FLT3 (Homo sapiens, UniProt P36888, D835Y); assay: biochemical; format: cell-based, Sf9
Description: Inhibition of N-terminal GST/His6-fused recombinant human FLT3 (R571 to S993 residues) D835Y mutant expressed in Sf9 insect cells using poly (Ala,Glu,Lys,Tyr) 6:2:5:1 hydrobromide as substrate in presence of [gamma-33P]ATP

[15] = target: Platelet-derived growth factor receptor beta (Homo sapiens) (UniProt P09619); conditions: 10 nM
Platelet-derived growth factor receptor beta (Homo sapiens), sequence (P09619 whole entry): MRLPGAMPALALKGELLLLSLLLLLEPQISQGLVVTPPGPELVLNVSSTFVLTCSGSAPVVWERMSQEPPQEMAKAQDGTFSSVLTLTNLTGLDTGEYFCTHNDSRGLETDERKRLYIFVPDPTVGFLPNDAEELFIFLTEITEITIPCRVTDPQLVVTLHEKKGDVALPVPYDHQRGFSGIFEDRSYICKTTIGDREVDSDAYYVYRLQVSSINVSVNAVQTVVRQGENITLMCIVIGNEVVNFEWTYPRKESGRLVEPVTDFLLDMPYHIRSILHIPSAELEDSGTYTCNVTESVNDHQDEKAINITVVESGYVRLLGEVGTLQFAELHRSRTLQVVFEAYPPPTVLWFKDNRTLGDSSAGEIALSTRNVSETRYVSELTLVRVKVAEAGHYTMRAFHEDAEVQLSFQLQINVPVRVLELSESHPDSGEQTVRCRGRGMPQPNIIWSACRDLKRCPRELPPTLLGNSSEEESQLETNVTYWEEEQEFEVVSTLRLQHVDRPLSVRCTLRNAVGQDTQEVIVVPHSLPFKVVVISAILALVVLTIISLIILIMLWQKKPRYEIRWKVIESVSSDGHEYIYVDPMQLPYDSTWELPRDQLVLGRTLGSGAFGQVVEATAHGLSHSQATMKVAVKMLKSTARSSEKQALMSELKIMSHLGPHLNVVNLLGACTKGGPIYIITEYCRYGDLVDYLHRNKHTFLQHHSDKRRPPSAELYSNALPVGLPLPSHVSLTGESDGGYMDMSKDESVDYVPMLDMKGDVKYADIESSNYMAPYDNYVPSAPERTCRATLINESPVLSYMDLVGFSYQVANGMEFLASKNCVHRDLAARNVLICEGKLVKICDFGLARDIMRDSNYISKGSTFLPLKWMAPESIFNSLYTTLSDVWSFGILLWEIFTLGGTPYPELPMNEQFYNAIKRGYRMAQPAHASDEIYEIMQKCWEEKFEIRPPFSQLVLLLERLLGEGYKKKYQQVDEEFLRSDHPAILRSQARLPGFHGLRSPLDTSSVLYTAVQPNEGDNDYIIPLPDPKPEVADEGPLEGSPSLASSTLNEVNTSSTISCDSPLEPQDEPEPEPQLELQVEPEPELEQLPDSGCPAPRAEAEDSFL
Description: Inhibition of human N-terminal GST-tagged PDGFRbeta cytoplasmic domain expressed in baculovirus expression system at 10 nM relative to control

[16] = system: Receptor-type tyrosine-protein kinase FLT3 (Homo sapiens), P36888 [UNDEFINED MUTATION]; conditions: MV4-11, at 0.01 to 100 nM; remark: listed apart in the source
Description: Inhibition of FLT3 ITD mutant in human MV4-11 cells assessed as decrease in MEK1/2 phosphorylation at S217/221 at 0.01 to 100 nM after 1 hr by immunoblot analysis

MV4-11 [17] = assay: Growth inhibition of human MV4-11 cells after 72 hrs by calcein AM dye-based fluorescence assay; format: functional; conditions: MV4-11, 72 h
MV4-11 [18] = assay: Cell cycle arrest in human MV4-11 cells assessed as accumulation at sub-G1 phase at 100 nM after 24 hrs by propidium iodide staining-based flow cytometric method (reference value: 9.2%); format: functional
[19] = target: Proto-oncogene tyrosine-protein kinase Src (Homo sapiens) (UniProt P12931); conditions: 10 nM
Proto-oncogene tyrosine-protein kinase Src (Homo sapiens), sequence (P12931 2-536 limits assumed): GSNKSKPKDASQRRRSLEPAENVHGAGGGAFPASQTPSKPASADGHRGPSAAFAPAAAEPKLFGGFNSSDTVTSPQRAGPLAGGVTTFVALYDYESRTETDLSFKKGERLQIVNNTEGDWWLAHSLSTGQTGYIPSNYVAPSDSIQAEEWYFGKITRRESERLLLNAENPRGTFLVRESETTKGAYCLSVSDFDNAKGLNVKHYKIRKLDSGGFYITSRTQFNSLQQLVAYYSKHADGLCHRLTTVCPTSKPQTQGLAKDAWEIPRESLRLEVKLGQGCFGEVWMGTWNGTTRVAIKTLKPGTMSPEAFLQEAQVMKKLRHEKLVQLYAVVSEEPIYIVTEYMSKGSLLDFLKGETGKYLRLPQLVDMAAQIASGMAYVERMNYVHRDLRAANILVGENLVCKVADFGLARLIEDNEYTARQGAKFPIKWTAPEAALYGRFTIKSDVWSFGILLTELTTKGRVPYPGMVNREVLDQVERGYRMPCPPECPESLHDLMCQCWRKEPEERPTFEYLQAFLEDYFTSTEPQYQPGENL
Description: Inhibition of full length human N-terminal GST-tagged SRC expressed in baculovirus expression system at 10 nM relative to control

[20] = system: Receptor-type tyrosine-protein kinase FLT3 (Homo sapiens), P36888 [UNDEFINED MUTATION]; conditions: MV4-11, at 0.01 to 100 nM; remark: listed apart in the source
Description: Inhibition of FLT3 ITD mutant in human MV4-11 cells assessed as decrease in STAT5 phosphorylation at Y694 at 0.01 to 100 nM after 1 hr by immunoblot analysis

MV4-11 [21] = assay: Cell cycle arrest in human MV4-11 cells assessed as accumulation at G2/M phase at 1 nM after 24 hrs by propidium iodide staining-based flow cytometric method (reference value: 15.9%); format: functional
[22] = target: T1, Receptor-type tyrosine-protein kinase FLT3 (Homo sapiens, UniProt P36888); assay: biochemical; format: cell-based, Sf9
T1 sequence (P36888 whole entry): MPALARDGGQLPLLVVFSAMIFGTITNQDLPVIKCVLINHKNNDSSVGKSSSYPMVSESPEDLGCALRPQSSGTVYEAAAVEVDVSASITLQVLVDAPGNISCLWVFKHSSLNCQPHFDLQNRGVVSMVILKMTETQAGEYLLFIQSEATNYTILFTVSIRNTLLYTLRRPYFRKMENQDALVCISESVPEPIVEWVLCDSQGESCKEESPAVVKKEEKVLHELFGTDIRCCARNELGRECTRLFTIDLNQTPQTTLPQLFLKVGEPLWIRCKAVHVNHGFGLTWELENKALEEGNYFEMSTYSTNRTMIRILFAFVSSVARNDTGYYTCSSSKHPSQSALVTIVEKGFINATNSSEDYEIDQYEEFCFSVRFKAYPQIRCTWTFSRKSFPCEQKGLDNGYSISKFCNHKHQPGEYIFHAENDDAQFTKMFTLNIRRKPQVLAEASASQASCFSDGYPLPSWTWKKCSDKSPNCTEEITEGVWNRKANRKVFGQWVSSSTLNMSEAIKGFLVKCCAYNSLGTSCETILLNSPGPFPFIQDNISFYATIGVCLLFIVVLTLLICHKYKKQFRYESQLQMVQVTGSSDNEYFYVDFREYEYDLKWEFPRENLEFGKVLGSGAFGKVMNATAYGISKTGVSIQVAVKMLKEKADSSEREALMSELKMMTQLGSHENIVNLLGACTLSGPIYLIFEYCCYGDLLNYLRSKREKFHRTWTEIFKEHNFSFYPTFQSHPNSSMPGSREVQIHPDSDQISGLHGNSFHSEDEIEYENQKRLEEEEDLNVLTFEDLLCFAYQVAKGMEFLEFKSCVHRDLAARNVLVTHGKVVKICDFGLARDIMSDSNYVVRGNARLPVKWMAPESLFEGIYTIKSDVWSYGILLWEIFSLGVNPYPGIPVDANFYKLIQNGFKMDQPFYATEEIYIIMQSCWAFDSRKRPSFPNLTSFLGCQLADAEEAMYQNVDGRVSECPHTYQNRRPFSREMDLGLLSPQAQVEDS
Description: Inhibition of N-terminal GST/His6-fused recombinant wild type human FLT3 (R571 to S993 residues) expressed in Sf9 insect cells using poly (Ala,Glu,Lys,Tyr) 6:2:5:1 hydrobromide as substrate in presence of [gamma-33P]ATP

in vitro [23] = conditions: human, HUVEC
THP-1 = assay: cells; conditions: Homo sapiens, THP-1, 72 h

Compound: N[C@H]1CC[C@H](Nc2nc(Nc3ccc(CN4CCOCC4)cc3)c3ncn(C4CCCC4)c3n2)CC1
- Activity (MV4-11 [1]): 11.8%
- GI50 (K562): 0.38 µM
- inhibition [2]: > 90%
- GI50 (U-937): 0.664 µM
- GI50 (Kasumi 1): 0.513 µM
- Activity (MV4-11 [3]): Active
- inhibition [4]: Active
- Activity (MV4-11 [5]): Active
- Activity (MV4-11 [6]): 90.3%
- inhibition [7]: Active
- Activity (MV4-11 [8]): 0.8%
- Activity (MV4-11 [9]): 14.5%
- inhibition [10]: > 90%
- Activity (Rattus norvegicus [11]): Non-Toxic
- GI50 at 72 h (in vitro [12]): 20.6 µM
- Activity (Rattus norvegicus [13]): Non-Toxic
- IC50 [14]: 0.008 µM
- inhibition [15]: > 90%
- inhibition [16]: Active
- GI50 (MV4-11 [17]): 0.002 µM
- Activity (MV4-11 [18]): 45.9%
- inhibition [19]: > 90%
- inhibition [20]: Active
- Activity (MV4-11 [21]): 1.1%
- IC50 [22]: 0.013 µM
- GI50 at 72 h (in vitro [23]): 5.87 µM
- GI50 (THP-1): 0.713 µM
